Experimental findings from US4324894A, “Aminoisoquinoline derivatives” (Egyt Gyogyszervegyeszeti Gyar, priority 1979, dated 1982) are described below.

Bounds are passed on as bounds.

Common to all, as to assay type: in vivo
Data set [1] has as its system narcosis developed with hexobarbital. Put plainly: Potentiation of the narcosis developed with hexobarbital. The conditions noted are these: mice; for ED50: Mus musculus, po; for Therapeutic index: p.o., corresponds to LD50/ED50. The procedure:
The narcosis potentiating effects of the novel compounds having the formula (I) were studied by the method of Kaergaard and al., Arch. Int. […] The compounds studied were administered orally to groups of mice consisting of 6 animals each. To the control group, 20 ml/kg of 0.9 percent sodium chloride solution was orally administered. Then, the animals were treated with an intravenous dosage of 40 mg/kg of hexobarbital/5-(1-cyclohexenyl)-1,5-dimethylbarbituric acid/. According to our evaluation method, a 150 percent prolongation of sleeping period in relation to the control group was regarded as a positive response.
The number of animals with positive responses was related to the total number of animals treated.

Data set [2] in a line: Acute toxicity on mice, oral. The following applies: mouse, in vivo, po, mice weighing 18 to 22 g, orally. The procedure: (§1) The acute toxicity of the aminoisoquinoline derivatives of the formula (I) were determined on mice weighing 18 to 22 g. The compounds were administered orally. The LD50 values are summarized in Table I. Toxicity data for meprobamate [2-methyl-2-propylpropane-1,3-dioldicarbamate] and phenylbutazon [4-butyl-1,2-diphenylpyrazolidine-3,5-dione] used as reference substances in the pharmacological tests are also given in Table I.

Another data set relates to mice. The data set can be described thus: Acute toxicity on mice, oral. The following applies: mice weighing 18 to 22 g, orally. The procedure: as §1
[3] abbreviates: orally, hexobarbital 40 mg/kg intravenous, positive response = 150 percent prolongation of sleeping period in relation to control.

As for `CCCC(C)(COC(N)=O)COC(N)=O` [Meprobamate, 2-methyl-2-propylpropane-1,3-dioldicarbamate, reference compound], in data set [1] (setting [3]), the ED50 came to 260 mg/kg. The Therapeutic index in data set [1] is 4.2.

On to `Cc1c(N)nc(N2CCOCC2)c2ccccc12` [Example 1, 1-morpholinyl-3-amino-4-methylisoquinoline], for which the LD50 in data set [2] worked out at 2000 mg/kg. In addition, the ED50 in data set [1] (setting [3]) was 100 mg/kg. Further, the Therapeutic index in data set [1] was determined as 20.

The compound `Nc1cc2ccccc2c(N2CCOCC2)n1` [Example 5, 1-morpholinyl-3-aminoisoquinoline ethanesulfonate] displayed an LD50 p.o. with mice of 2000 mg/kg.

For the compound `Cc1c(N)nc(N2CCN(c3ccccn3)CC2)c2ccccc12` [Example 3, 1-/4'-(2"-pyridyl)-1'-piperazinyl/-3-amino-4-methylisoquinoline bis/ethanesulfonate/], the LD50 p.o. in the data set on mice is 2000 mg/kg. Moreover, the ED50 p.o. in data set [1] (setting [3]) is recorded as 140 mg/kg. In addition, the Therapeutic index in data set [1] is 14.3.

Turning to `Cc1c(N)nc(N2CCN(c3ccccn3)CC2)c2ccccc12` [Example 2, 1-/4'-(2"-pyridyl)-1'-piperazinyl/-3-amino-4-methylisoquinoline], in data set [2], the LD50 amounted to 2000 mg/kg. For the same compound, the ED50 in data set [1] (setting [3]) was determined as 74 mg/kg. In addition, the Therapeutic index in data set [1] amounted to 27.

In data set [2], `Nc1cc2ccccc2c(N2CCN(c3ccccn3)CC2)n1` [Example 6, 1-/4'-(2"-pyridyl)-piperazin-1'-yl/-3-aminoisoquinoline] yielded an LD50 of 2000 mg/kg. The ED50 in data set [1] (setting [3]) amounted to 140 mg/kg. Moreover, in data set [1], the Therapeutic index is on record as 14.3.

`Nc1cc2ccccc2c(N2CCOCC2)n1` [Example 4, 1-morpholinyl-3-aminoisoquinoline]: the LD50 in data set [2] was more than 2000 mg/kg.
